Measured values: PMC10321483 (Chemical Science, 2023)
Values joined by “and” are separate entries in the source; they are usually repeats but may differ in a detail not shown here. Equal values may be shown once. Read-outs that look alike come from different tables or passages of the source.

Key:
[1] = biological target: T1, LdtMt2 (Mycobacterium tuberculosis, UniProt I6Y9J2); experiment: biochemical; format: biochemical; set-up: made in house; host or cells: E. coli
[2] = biological target: T2, BlaC (Mycobacterium tuberculosis, UniProt P9WKD3); experiment: BlaC fluorogenic inhibition assay with FC5 (dose-response); format: biochemical
T2 construct: made in house; host or cells: E. coli
T2 sequence (P9WKD3 35-307): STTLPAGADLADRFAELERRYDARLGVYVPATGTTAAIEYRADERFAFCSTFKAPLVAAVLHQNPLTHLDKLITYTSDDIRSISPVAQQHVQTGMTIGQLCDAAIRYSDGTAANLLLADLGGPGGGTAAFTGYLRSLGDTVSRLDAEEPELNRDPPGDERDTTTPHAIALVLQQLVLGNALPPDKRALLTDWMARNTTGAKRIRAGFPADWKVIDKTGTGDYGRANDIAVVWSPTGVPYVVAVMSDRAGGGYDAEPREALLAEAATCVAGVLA
Procedure: Two types of controls were used. […] In control 2, the BlaC mixture was substituted with the assay buffer. This mixture was incubated for 30 minutes at room temperature without shaking. […] Data were analysed using ActivityBase (IDBS).

[3] = biological target: T1, LdtMt2; experiment: Rate constant of covalent target inactivation (kinact/KI), endpoint competition assay with probe 2; format: biochemical; set-up: made in house; host or cells: E. coli; details: for kinact/KI: 100 nM LdtMt2, 10 µM probe 2, 3 h incubation, n=4
[4] = biological target: T1, LdtMt2; experiment: biochemical; format: binding; set-up: made in house; host or cells: E. coli
Procedure: LdtMt2 (5 μM) was incubated with the inhibitor (500 μM) in assay buffer (50 mM tris pH 7.5) for 30 minutes at room temperature in 96-well white PCR plates (25 μL final volume, Starlab). SYPRO Orange (final concentration 6×, according to manufacturer's definition, Invitrogen) was then added and the plate was sealed using a transparent plastic film (Polyolefin StarSeal, Starlab). Fluorescence was monitored (with λex = 492 nm and λem = 610 nm) using a CFX96 Touch Real-Time PCR Detection System (Bio-Rad), while the temperature was increased from 20 to 95 °C in increments of 0.2 °C. Melting temperatures (Tms) were determined using the CFX Maestro Software (Bio-Rad).

[5] = Table S3 tool compounds, 10 min incubation, 2.5 nM BlaC, 2.5 µM FC5, n=4, read-out: pIC50 BlaC (mean ± SD) (converted)
[6] = Table S4 HTS validation, 30 minutes inhibitor pre-incubation, n=8, read-out: pIC50 BlaC (mean ± SD) (converted)
[7] = Table S4 HTS validation, 30 minutes inhibitor pre-incubation, n=6, read-out: pIC50 LdtMt2 (mean ± SD) (converted)

T1 sequence (I6Y9J2 56-408): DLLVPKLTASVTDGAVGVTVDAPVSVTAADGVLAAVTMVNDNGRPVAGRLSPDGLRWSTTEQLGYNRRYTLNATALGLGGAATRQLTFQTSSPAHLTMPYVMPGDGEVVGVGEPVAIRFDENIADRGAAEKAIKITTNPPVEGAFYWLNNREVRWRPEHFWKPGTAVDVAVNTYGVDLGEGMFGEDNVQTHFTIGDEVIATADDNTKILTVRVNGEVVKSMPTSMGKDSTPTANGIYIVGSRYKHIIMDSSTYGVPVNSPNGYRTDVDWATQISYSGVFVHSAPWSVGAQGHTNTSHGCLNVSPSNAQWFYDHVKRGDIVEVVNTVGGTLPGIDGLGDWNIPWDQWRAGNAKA

N#CSc1ccc([N+](=O)[O-])c(C(=O)O)c1 [Compound 44, 2-nitro-5-thiocyanobenzoic acid, reference compound]
IC50 ([1]; Table S10 known cyanating compounds, read-out: pIC50 LdtMt2 (converted)): 1.45 µM

CC(C)(O/N=C(\C(=O)N[C@@H]1C(=O)N2C(C(=O)[O-])=C(C[n+]3ccccc3)CS[C@H]12)c1csc(N)n1)C(=O)O [Ceftazidime]
IC50 [2, 5]: 39.8 µM | IC50 [2, 6]: 12 µM | IC50 ([1]; pIC50 LdtMt2 (mean ± SD)): > 100 µM

CC1(C)S[C@@H]2[C@H](NC(=O)[C@H](C(=O)O)c3ccsc3)C(=O)N2[C@H]1C(=O)O [Ticarcillin, reference compound]
IC50 [2, 5]: 11.7 µM | IC50 [2, 6]: 14.5 µM | IC50 [1, 7]: 44.7 µM | IC50 ([1]; pIC50 LdtMt2 (mean ± SD)): > 100 µM

C[C@@H](O)[C@H]1C(=O)N2C(C(=O)O)=C(S[C@@H]3CN[C@H](CNS(N)(=O)=O)C3)[C@H](C)[C@H]12 [Doripenem, reference compound]
IC50 [2, 5]: 0.0417 µM | IC50 [2, 6]: 0.0141 µM | IC50 ([1]; pIC50 LdtMt2 (mean ± SD)): 5.01 µM and 1.7 µM

N#Cn1c(-c2ccc3nccnc3c2)nc2ccccc21 [Compound 26]
kinact/KI [3]: 65.0 ± 4.4 M⁻¹ s⁻¹ | lowered the melting temperature of LdtMt2 by [4]: 2.1 °C | ΔTm: difference in melting point of LdtMt2 relative to unreacted LdtMt2 (43.8 °C) [4]: -2.1 | Tm: melting point of LdtMt2 after pre-incubation with the compound ([4]; pH 7.5, in °C (unit assumed)): 41.7 ± 0.09 | LE (ligand efficiency) [1]: 0.53

N#Cn1c(-c2ccc(-c3nccs3)cc2)nc2ccccc21 [Compound 29]
kinact/KI [3]: 1164 ± 105 M⁻¹ s⁻¹ | ΔTm: difference in melting point of LdtMt2 relative to unreacted LdtMt2 (43.8 °C) [4]: -0.9 | Tm: melting point of LdtMt2 after pre-incubation with the compound ([4]; pH 7.5, in °C (unit assumed)): 42.9 ± 0.19 | LE (ligand efficiency) [1]: 0.51

N#Cn1c(-c2ccc(OC3CCOCC3)cc2)nc2ccccc21 [Compound 32]
kinact/KI [3]: 86.3 ± 2.6 M⁻¹ s⁻¹ | ΔTm: difference in melting point of LdtMt2 relative to unreacted LdtMt2 (43.8 °C) [4]: -1.5 | Tm: melting point of LdtMt2 after pre-incubation with the compound ([4]; pH 7.5, in °C (unit assumed)): 42.3 ± 0.09 | LE (ligand efficiency) [1]: 0.47

N#Cn1nnc2ccccc21 [Compound 42, reference compound]
pIC50 LdtMt2 [1]: 6.02 ± 0.05

Cc1onc(-c2ccccc2)c1C(=O)N[C@@H]1C(=O)N2[C@@H]1SC(C)(C)[C@@H]2C(=O)O [Oxacillin, reference compound]
IC50 [2, 5]: 0.158 µM | IC50 [2, 6]: 0.0676 µM | IC50 [1, 7]: 6.03 µM | IC50 ([1]; pIC50 LdtMt2 (mean ± SD)): 63.1 µM

CO/N=C(\C(=O)N[C@@H]1C(=O)N2C(C(=O)O)=C(CSC(=O)c3ccco3)CS[C@H]12)c1csc(N)n1 [Ceftiofur, reference compound]
IC50 [2, 5]: > 100 µM | IC50 ([1]; pIC50 LdtMt2 (mean ± SD)): > 100 µM

CN(C)c1cc[n+](C#N)cc1 [Compound 43, 1-cyano-4-dimethylaminopyridinium tetrafluoroborate, reference compound]
IC50 ([1]; pIC50 LdtMt2): 5.01 µM

N#Cn1ccnc1 [Compound 41, reference compound]
pIC50 LdtMt2 [1]: 6.54 ± 0.01

N#Cn1c(-c2ccncc2)nc2ccc(-c3cccnc3)cc21 [Compound 35]
ΔTm: difference in melting point of LdtMt2 relative to unreacted LdtMt2 (43.8 °C) [4]: -0.9 | Tm: melting point of LdtMt2 after pre-incubation with the compound ([4]; pH 7.5, in °C (unit assumed)): 42.9 ± 0.34 | LE (ligand efficiency) [1]: 0.49

CC1(C)S[C@@H]2[C@H](NC(=O)C(C(=O)O)c3ccccc3)C(=O)N2[C@H]1C(=O)O (stereo partly drawn) [Carbenicillin, reference compound]
IC50 [2, 5]: > 100 µM | IC50 ([1]; pIC50 LdtMt2 (mean ± SD)): > 100 µM

O=C1OC2(c3ccc(O)cc3Oc3cc(OS(=O)(=O)c4ccc([N+](=O)[O-])cc4[N+](=O)[O-])ccc32)c2ccccc21 (stereo not drawn) [probe 2, reference compound]
(kinact/KI)probe ([3]; from kobs, LdtMt2 100 nM, probe 2 100 nM to 10 μM): 39.8 M⁻¹ s⁻¹

Cn1c(SCC2=C(C(=O)O)N3C(=O)[C@@H](NC(=O)COc4ccccc4)[C@H]3SC2)n[nH]c1=O [Compound 19]
Tm: melting point of LdtMt2 after pre-incubation with the compound ([4]; 5 µM LdtMt2, 500 µM inhibitor, SYPRO Orange, 50 mM Tris pH 7.5): 42.9 ± 0.09 °C | ΔTm at 500 µM ([4]; read-out: ΔTm: difference in melting point of LdtMt2 relative to unreacted LdtMt2 (43.8 °C)): -0.9 °C | IC50 ([2]; Table S5 HTS hits, 30 minute inhibitor pre-incubation, two independent repeats, read-out: pIC50 BlaC (converted)): > 100 µM | LE (ligand efficiency) ([1]; Table S5, for LdtMt2): 0.35 | IC50 ([1]; Table S5 HTS hits, 30 minute inhibitor pre-incubation, two independent repeats, read-out: pIC50 LdtMt2 (converted)): 2.4 µM and 2.4 to 2.82 µM

C[C@@H](O)[C@H]1C(=O)N2C(C(=O)O)=C(S[C@@H]3CN[C@H](C(=O)Nc4cccc(C(=O)O)c4)C3)[C@H](C)[C@H]12 [Ertapenem, reference compound]
IC50 [2, 5]: 0.178 µM | IC50 [2, 6]: 0.0676 µM | IC50 [1, 7]: 0.776 µM | IC50 ([1]; pIC50 LdtMt2 (mean ± SD)): 1.58 µM

NC(=O)CI [Iodoacetamide, reference compound]
pIC50 BlaC (mean ± SD) ([2]; Table S3 tool compounds, 10 min incubation, 2.5 nM BlaC, 2.5 µM FC5, n=4): < 4.0 | pIC50 LdtMt2 (mean ± SD) [1]: 5.8 ± 0.03 | pIC50 LdtMt2 (mean ± SD) ([1]; Table S4 HTS validation, 30 minutes inhibitor pre-incubation, n=6): 6.05 ± 0.03
